# Reference: patent US20160272992A1, “PROTECTION OF PLANTS AGAINST OXIDATIVE STRESS” (priority 2013, published 2016)
# What was measured:
# [1] = test system: 5-day-old wild-type root tips; conditions: 2-mM hydroxyurea; cited from earlier work
# Arabidopsis seedlings = assay: High-light transfer of seedlings: PSII efficiency (chlorophyll a fluorescence) and leaf appearance; type: in vivo, Arabidopsis thaliana
# Experimental: Unless stated otherwise, plants of Arabidopsis thaliana (L.) Heyhn (ecotype Columbia), were grown under long-day conditions (16 hours of light, 8 hours of darkness) at 22° C. on half-strength Murashige and Skoog (MS) germination medium (Murashige and Skoog, 1962). Arabidopsis plants were treated with HU as described by Cools et al. (2011). […] For light treatments, one-week-old seedlings were transferred to continuous high-light conditions (growth rooms kept at 22° C. with 24-hour day/0-hour night cycles and a light intensity of 300-400 μmol m^−2 s^−1) for 2 days, and subsequently retransferred to low-light conditions.
# Chlorophyll a fluorescence parameters were measured using the IMAGING PAM M-Series Chlorofyll Fluorescence (Walz) and associated software.
smiles,measurement,setting,value
"NC(=O)NO [HU, hydroxyurea]","HU 24 h/0 h fold change, AT1G07500 (Siamese-related 5)",[1],7.863
same,"HU 24 h/0 h fold change, AT1G09815 (polymerase delta 4)",[1],2.354
same,"HU 24 h/0 h fold change, AT1G12020 (unknown protein)",[1],1.873
same,"HU 24 h/0 h fold change, AT1G13330 (Hop2 homolog)",[1],2.949
same,"HU 24 h/0 h fold change, AT1G17460 (TRF-like 3)",[1],2.378
same,"HU 24 h/0 h fold change, AT1G30600 (Subtilase family protein)",[1],1.711
same,"HU 24 h/0 h fold change, AT1G31280 (Argonaute family protein)",[1],1.866
same,"HU 24 h/0 h fold change, AT1G49030 (PLAC8 family protein)",[1],1.553
same,"HU 24 h/0 h fold change, AT1G59660 (Nucleoporin autopeptidase)",[1],1.860
same,"HU 24 h/0 h fold change, AT1G76180 (Dehydrin family protein)",[1],1.659
same,"HU 24 h/0 h fold change, AT2G18600 (Ubiquitin-conjugating enzyme family protein)",[1],5.521
same,"HU 24 h/0 h fold change, AT2G21790 (ribonucleotide reductase 1)",[1],2.514
same,"HU 24 h/0 h fold change, AT2G30360 (SOS3-interacting protein 4)",[1],2.274
same,"HU 24 h/0 h fold change, AT2G31320 (poly(ADP-ribose) polymerase 2)",[1],2.445
same,"HU 24 h/0 h fold change, AT2G36910 (ATP binding cassette subfamily B1)",[1],1.569
same,"HU 24 h/0 h fold change, AT2G45460 (SMAD/FHA domain-containing protein)",[1],2.378
same,"HU 24 h/0 h fold change, AT2G46610 (RNA-binding RRM/RBD/RNP motifs family protein)",[1],3.593
same,"HU 24 h/0 h fold change, AT2G47680 (zinc finger CCCH type helicase family protein)",[1],3.422
same,"HU 24 h/0 h fold change, AT3G02400 (SMAD/FHA domain-containing protein)",[1],2.479
same,"HU 24 h/0 h fold change, AT3G07800 (Thymidine kinase)",[1],7.160
same,"HU 24 h/0 h fold change, AT3G12510 (MADS-box family protein)",[1],2.266
same,"HU 24 h/0 h fold change, AT3G15240 (Serine/threonine-protein kinase WNK-related)",[1],1.790
same,"HU 24 h/0 h fold change, AT3G20490 (unknown protein)",[1],2.313
same,"HU 24 h/0 h fold change, AT3G25250 (AGC kinase family protein)",[1],1.853
same,"HU 24 h/0 h fold change, AT3G27060 (Ferritin/ribonucleotide reductase-like family protein)",[1],4.595
same,"HU 24 h/0 h fold change, AT3G27620 (alternative oxidase 1C)",[1],2.056
same,"HU 24 h/0 h fold change, AT3G27950 (GDSL-like Lipase/Acylhydrolase superfamily protein)",[1],1.641
same,"HU 24 h/0 h fold change, AT3G42860 (zinc knuckle CCHC-type family protein)",[1],2.445
same,"HU 24 h/0 h fold change, AT3G45730 (unknown protein)",[1],5.637
same,"HU 24 h/0 h fold change, AT4G02390 (Poly(ADP-ribose) polymerase)",[1],7.701
same,"HU 24 h/0 h fold change, AT4G04750 (Major facilitator superfamily protein)",[1],1.625
same,"HU 24 h/0 h fold change, AT4G11740 (Ubiquitin-like superfamily protein)",[1],1.653
same,"HU 24 h/0 h fold change, AT4G15480 (UDP-Glycosyltransferase superfamily protein)",[1],2.196
same,"HU 24 h/0 h fold change, AT4G19130 (Replication factor-A protein 1-related)",[1],2.305
same,"HU 24 h/0 h fold change, AT4G21070 (Breast cancer susceptibility1)",[1],10.375
same,"HU 24 h/0 h fold change, AT4G22960 (Unknown function DUF544)",[1],5.315
same,"HU 24 h/0 h fold change, AT4G28950 (RHO-related protein from plants 9)",[1],9.680
same,"HU 24 h/0 h fold change, AT4G29170 (Mnd1 family protein)",[1],2.898
same,"HU 24 h/0 h fold change, AT4G35740 (DEAD/DEAH box RNA helicase family protein)",[1],2.594
same,"HU 24 h/0 h fold change, AT5G02220 (unknown protein; SMR4)",[1],4.500
same,"HU 24 h/0 h fold change, AT5G03780 (TRF-like 10)",[1],7.111
same,"HU 24 h/0 h fold change, AT5G06190 (unknown protein)",[1],2.878
same,"HU 24 h/0 h fold change, AT5G11460 (Protein of unknown function DUF581)",[1],5.483
same,"HU 24 h/0 h fold change, AT5G14920 (Gibberellin-regulated family protein)",[1],2.789
same,"HU 24 h/0 h fold change, AT5G14930 (senescence-associated gene 101)",[1],1.542
same,"HU 24 h/0 h fold change, AT5G20850 (RAS associated with diabetes protein 51)",[1],4.643
same,"HU 24 h/0 h fold change, AT5G24280 (Gamma-irradiation and mitomycin c induced 1)",[1],4.823
same,"HU 24 h/0 h fold change, AT5G25810 (Integrase-type DNA-binding superfamily protein)",[1],1.558
same,"HU 24 h/0 h fold change, AT5G40840 (Rad21/Rec8-like family protein)",[1],3.375
same,"HU 24 h/0 h fold change, AT5G48720 (X-ray induced transcript 1)",[1],5.296
same,"HU 24 h/0 h fold change, AT5G49480 (Ca2+-binding protein 1)",[1],1.952
same,"HU 24 h/0 h fold change, AT5G55490 (Gamete expressed protein 1)",[1],1.670
same,"HU 24 h/0 h fold change, AT5G60100 (pseudo-response regulator 3)",[1],1.619
same,"HU 24 h/0 h fold change, AT5G60250 (Zinc finger C3HC4-type RING finger family protein)",[1],8.907
same,"HU 24 h/0 h fold change, AT5G64060 (NAC domain containing protein 103)",[1],5.579
same,"HU 24 h/0 h fold change, AT5G66130 (RADIATION SENSITIVE 17)",[1],2.888
same,"HU 24 h/0 h fold change, AT5G66985 (unknown protein)",[1],3.294
same,"HU 24 h/0 h fold change, AT5G67360 (Subtilase family protein)",[1],1.676
same,"HU 24 h/0 h fold change, AT5G67460 (O-Glycosyl hydrolases family 17 protein)",[1],2.799
same,maximum quantum efficiency of PSII (F′v/F′m),"Arabidopsis seedlings; one-week-old seedlings, 48 hours high light, in the presence of HU vs absence",decrease was even more pronounced
same,anthocyanin accumulation after transfer to high light,"Arabidopsis seedlings; plants grown in the presence of HU, within 48 hours after transfer",accumulated anthocyanins in the young leaf tissue
